Source: patent publication US12649745B2, “Amino-pyrimidine cyclo-amides” (Hoffmann-La Roche Inc., priority 2020, dated 2026)

Target: T1, human Autotaxin (ATX) (Homo sapiens, UniProt Q13822)
T1 construct: generate a full length human ENPP2 ORF with or without a 3′-6×His tag; 6xHis (C); made in house; host or cells: FreeStyle 293-F cells (transient transfection), purified from culture supernatant
Assay: Human ATX enzyme inhibition assay (LPC substrate, choline oxidase/HRP/Amplex Red coupled format)
Assay type: biochemical
Settings: recombinant hATX 1 nM, 18:1 LPC 30 μM, fluorescence at 90 mins minus 5 mins
Procedure: Human ATX Enzyme Inhibition Assay
To identify inhibitors of the human Autotaxin (ATX) enzyme an in-vitro biochemical profiling assay has been developed using lysophosphatidylcholine (LPC) as substrate and recombinant enzyme. ATX activity is assayed via a coupled enzyme format where choline produced from LPC hydrolysis is converted to hydrogen peroxide by choline oxidase (CO). Hydrogen peroxide is in turn used as a co-substrate by horseradish peroxidase (HRP) to oxidise Amplex Red® and generate the red-fluorescent product, Resorufin.
50 mM Tris-HCl (pH 8.0); 120 mM NaCl; 20 mM CaCl2; 5 mM KCl; 1 mM MgCl2; 0.01% Triton X-100, sterile-filtered and stored at 4° C.
50 mM Tris-HCl (pH 8.0); 150 mM NaCl
human Autotaxin (hATX): 0.97 mg/ml (9.718 μM) Molecular weight 99817. Working solution of 1.5 μM used in this assay.
100 mM 18:1 LPC dissolved in reagent dilution-buffer.
500 U/ml Choline Oxidase in reagent dilution buffer.
2540 U/ml Horseradish Peroxidase, in reagent dilution buffer (10.95 mg/ml).
20 mM Amplex Red (10-Acetyl-3,7-dihydroxy-phenoxazin) in DMSO.
Black, 384-well plate, black with clear bottom, non-treated surface.
Test compounds are received pre-diluted in DMSO as an 11-point concentration-response (0.5 mM highest concentration; 1 in 3.162 dilution). Test compounds are pre-diluted 1:1 (10 μL compound+10 μL assay buffer) in a 96-well conical bottomed plate prior to use.
ATX is diluted to 2.2 nM in assay buffer. Choline oxidase and horseradish peroxidase are diluted to 7.3 U/ml and 14.7 U/ml, respectively. 18:1 LPC and Amplex Red® are diluted to 110 μM and 183.3 μM, respectively (solution protected from light). 2.2 μL of compound pre-dilution or 50% DMSO is added to the reaction plate followed by 25 μL of ATX or assay buffer (negative control). Assay plate is mixed and incubated at room temperature for 10 mins. 15 μL of choline oxidase/horseradish peroxidase is then added. To initiate the reaction 15 μL of LPC 18:1/Amplex Red is added. Assay plate is mixed and incubated at room temperature in the dark. Fluorescence is measured at 5 mins (for background subtraction) and 90 mins.
Final Assay Concentrations:
Horse Radish Peroxidase: 4 U/ml
Fluorescence at 5-minutes is subtracted from the 90-minute end point data and normalized with respect to the positive control. IC50 values are calculated.
Results in the enzymatic ATX inhibition assay are provided for compounds of formula (I).

| Structure (SMILES) | IC50 [nM] |
| --- | --- |
| N#Cc1cc(Cl)cc2c1C[C@@H](Nc1ncc3c(n1)CN(CC(F)(F)F)C3=O)C2 [Example 10, (S)-6-chloro-2-((5-oxo-6-(2,2,2-trifluoroethyl)-6,7-dihydro-5H-pyrrolo[3,4-d]pyrimidin-2-yl)amino)-2,3-dihydro-1H-indene-4-carbonitrile] | 2 |
| CC1(N2Cc3nc(NC4Cc5ccc(Cl)cc5C4)ncc3C2=O)COC1 (stereo not shown) [Example 2, 2-((5-chloro-2,3-dihydro-1H-inden-2-yl)amino)-6-(3-methyloxetan-3-yl)-6,7-dihydro-5H-pyrrolo[3,4-d]pyrimidin-5-one] | 183 |
| CC1(N2Cc3nc(N[C@H]4Cc5cc(Cl)cc(C#N)c5C4)ncc3C2=O)COC1 [Example 3, (S)-6-chloro-2-((6-(3-methyloxetan-3-yl)-5-oxo-6,7-dihydro-5H-pyrrolo[3,4-d]pyrimidin-2-yl)amino)-2,3-dihydro-1H-indene-4-carbonitrile] | 5 |
| N#Cc1cc(Cl)cc2c1C[C@@H](Nc1ncc3c(n1)CCN(C1CCOCC1)C3=O)C2 [Example 29, (S)-6-chloro-2-((5-oxo-6-(tetrahydro-2H-pyran-4-yl)-5,6,7,8-tetrahydropyrido[4,3-d]pyrimidin-2-yl)amino)-2,3-dihydro-1H-indene-4-carbonitrile] | 4 |
| N#Cc1cc(Cl)cc2c1C[C@@H](Nc1ncc3c(n1)CN(C1CCOCC1)C3=O)C2 [Example 9, (S)-6-chloro-2-((5-oxo-6-(tetrahydro-2H-pyran-4-yl)-6,7-dihydro-5H-pyrrolo[3,4-d]pyrimidin-2-yl)amino)-2,3-dihydro-1H-indene-4-carbonitrile] | 5 |

Continued, values first:

| IC50 [nM] | Structure (SMILES) |
| --- | --- |
| 3 | N#Cc1cc(Cl)cc2c1C[C@@H](Nc1ncc3c(n1)CCN(C1COC1)C3=O)C2 [Example 17, (S)-6-chloro-2-((6-(oxetan-3-yl)-5-oxo-5,6,7,8-tetrahydropyrido[4,3-d]pyrimidin-2-yl)amino)-2,3-dihydro-1H-indene-4-carbonitrile] |
| 4 | N#Cc1cc(Cl)cc2c1C[C@@H](Nc1ncc3c(n1)CCN(C1CCOC1)C3=O)C2 (mixture of isomers) [Example 32, (S,S) and (S,R)-6-chloro-2-((5-oxo-6-(tetrahydrofuran-3-yl)-5,6,7,8-tetrahydropyrido[4,3-d]pyrimidin-2-yl)amino)-2,3-dihydro-1H-indene-4-carbonitrile] |
| 2 | CC(C)N1CCc2nc(N[C@H]3Cc4cc(Cl)cc(C#N)c4C3)ncc2C1=O [Example 30, (S)-6-chloro-2-((6-isopropyl-5-oxo-5,6,7,8-tetrahydropyrido[4,3-d]pyrimidin-2-yl)amino)-2,3-dihydro-1H-indene-4-carbonitrile] |
| 2 | N#Cc1cc(Cl)cc2c1C[C@@H](Nc1ncc3c(n1)CCN(CC1CC1)C3=O)C2 [Example 31, (S)-6-chloro-2-((6-(cyclopropylmethyl)-5-oxo-5,6,7,8-tetrahydropyrido[4,3-d]pyrimidin-2-yl)amino)-2,3-dihydro-1H-indene-4-carbonitrile] |
| 2 | N#Cc1cc(Cl)cc2c1C[C@@H](Nc1ncc3c(n1)CNC3=O)C2 [Example 35, (S)-6-chloro-2-((5-oxo-6,7-dihydro-5H-pyrrolo[3,4-d]pyrimidin-2-yl)amino)-2,3-dihydro-1H-indene-4-carbonitrile] |
